Columns and labels:
blood sugar = test: Blood sugar-lowering effect of the enantiomers in fasted female rats (oral); type: in vivo
Experimental: The substances to be investigated were suspended in 1.5% methylcellulose immediately before the start of the test and administered into the oesophagus. […] Glucose was measured in the supernatant by the hexokinase method using an analytical photometer. The statistical evaluation was carried out using the Student's t-test with p=0.05 as the limit of significance. Table 1 which follows contains the statistically significant values as percentage deviations from the control: […]

[1] = after administration of racemate
glucose [2] = test: Study 3: whole blood glucose, single fasting test subject, crossover; type: in vivo, human
glucose [3] = test: Study 4: whole blood glucose, AG-EE 623 ZW spray-dried tablets; type: in vivo, human
Text: Blood samples were taken at different times.

## CCOc1cc(CC(=O)N[C@@H](CC(C)C)c2ccccc2N2CCCCC2)ccc1C(=O)O [AG-EE 623 ZW, (S)(+)-2-ethoxy-4-[N-[1-(2-piperidino-phenyl)-3-methyl-1-butyl]aminocarbonylmethyl]-benzoic acid]
Blood sugar; 0.015 mg/kg p.o., 4 h
  Glucose, percentage deviation from control: -32 percentage deviation
Blood sugar; 0.015 mg/kg p.o., 5 h
  Glucose, percentage deviation from control: -35 percentage deviation
Blood sugar; 0.015 mg/kg p.o., 6 h
  Glucose, percentage deviation from control: -35 percentage deviation
Blood sugar; rat
  Blood sugar-lowering effect (in words): effective enantiomer
Blood sugar; rat, 0.015 mg/kg p.o.
  Duration of effect: > 6 h
[1]
  Elimination (comparison): eliminated more rapidly than the ineffective enantiomer, AG-EE 624 ZW
Glucose [2]; 2 mg
  Maximum lowering of blood glucose: -43%
  Onset of effect: 0.5 h
  Time of maximum blood sugar reduction: 1.5 h
Glucose [2]; 2 mg capsule, 0 h
  Glucose, deviation against t = 0: 0%
Glucose [2]; 2 mg, 0.50 h
  Glucose, deviation against t = 0: -10%
Glucose [2]; 2 mg, 0.75 h
  Glucose, deviation against t = 0: -14%
Glucose [2]; 2 mg, 1.00 h
  Glucose, deviation against t = 0: -18%
Glucose [2]; 2 mg, 1.25 h
  Glucose, deviation against t = 0: -29%
Glucose [2]; 2 mg, 1.50 h
  Glucose, deviation against t = 0: -43%
Glucose [2]; 2 mg, 1.75 h
  Glucose, deviation against t = 0: -40%
Glucose [2]; 2 mg, 2.00 h
  Glucose, deviation against t = 0: -33%
Glucose [2]; 2 mg, 2.50 h
  Glucose, deviation against t = 0: -33%
Glucose [2]; 2 mg, 3.00 h
  Glucose, deviation against t = 0: -31%
Glucose [2]; 2 mg, 4.00 h
  Glucose, deviation against t = 0: -20%
Glucose [2]; 2 mg, 5.00 h
  Glucose, deviation against t = 0: -22%
Glucose [2]; 2 mg, 6.00 h
  Glucose, deviation against t = 0: -28%
Glucose [2]; 2 mg, 7.00 h
  Glucose, deviation against t = 0: -22%
Glucose [2]; 2 mg, 8.00 h
  Glucose, deviation against t = 0: -26%
Glucose [3]; 0.5 mg tablet, 0 h
  Glucose (mean): 5.21 mmol/L
Glucose [3]; 0.5 mg, 0.25 h (breakfast)
  Glucose (mean): 5.09 mmol/L
Glucose [3]; 0.5 mg, 0.50 h
  Glucose (mean): 5.01 mmol/L
Glucose [3]; 0.5 mg, 0.75 h
  Glucose (mean): 5.85 mmol/L
Glucose [3]; 0.5 mg, 1.00 h
  Glucose (mean): 5.88 mmol/L
Glucose [3]; 0.5 mg, 1.50 h
  Glucose (mean): 4.05 mmol/L
Glucose [3]; 0.5 mg, 2.09 h (so in the source)
  Glucose (mean): 3.50 mmol/L
Glucose [3]; 0.5 mg, 3.00 h
  Glucose (mean): 3.90 mmol/L
Glucose [3]; 0.5 mg, 4.00 h
  Glucose (mean): 4.08 mmol/L
Glucose [3]; 0.5 mg, 5.00 h
  Glucose (mean): 4.32 mmol/L
Glucose [3]; 0.5 mg, 6.00 h
  Glucose (mean): 6.63 mmol/L
Glucose [3]; 0.5 mg, 8.00 h
  Glucose (mean): 5.61 mmol/L
Glucose [3]; 0.5 mg, 10.00 h (dinner)
  Glucose (mean): 4.81 mmol/L
Glucose [3]; 0.5 mg, 24.00 h
  Glucose (mean): 4.82 mmol/L
Glucose [3]; 1 mg and 2 mg tablet
  Time of peak blood sugar lowering: 1.5 h
Glucose [3]; 1 mg tablet
  Duration of blood sugar lowering: up to 2 hours
  Start of blood sugar lowering: 1.0 h
Glucose [3]; 1 mg tablet, 0 h
  Glucose (mean): 4.62 mmol/L
Glucose [3]; 1 mg, 0.25 h (breakfast)
  Glucose (mean): 4.62 mmol/L
Glucose [3]; 1 mg, 0.50 h
  Glucose (mean): 4.57 mmol/L
Glucose [3]; 1 mg, 0.75 h
  Glucose (mean): 5.36 mmol/L
Glucose [3]; 1 mg, 1.00 h
  Glucose (mean): 4.72 mmol/L
Glucose [3]; 1 mg, 1.50 h
  Glucose (mean): 2.98 mmol/L
Glucose [3]; 1 mg, 2.09 h (so in the source)
  Glucose (mean): 3.20 mmol/L
Glucose [3]; 1 mg, 3.00 h
  Glucose (mean): 3.69 mmol/L
Glucose [3]; 1 mg, 4.00 h
  Glucose (mean): 4.05 mmol/L
Glucose [3]; 1 mg, 5.00 h
  Glucose (mean): 3.94 mmol/L
Glucose [3]; 1 mg, 6.00 h
  Glucose (mean): 6.48 mmol/L
Glucose [3]; 1 mg, 8.00 h
  Glucose (mean): 5.37 mmol/L
Glucose [3]; 1 mg, 10.00 h (dinner)
  Glucose (mean): 4.57 mmol/L
Glucose [3]; 1 mg, 24.00 h
  Glucose (mean): 4.69 mmol/L
Glucose [3]; 2 mg tablet
  Duration of blood sugar lowering: ≤ 5 h
  Start of blood sugar lowering: 0.75 h
Glucose [3]; 2 mg tablet, 0 h
  Glucose (mean): 4.67 mmol/L
Glucose [3]; 2 mg, 0.25 h (breakfast)
  Glucose (mean): 5.14 mmol/L
Glucose [3]; 2 mg, 0.50 h
  Glucose (mean): 4.38 mmol/L
Glucose [3]; 2 mg, 0.75 h
  Glucose (mean): 4.54 mmol/L
Glucose [3]; 2 mg, 1.00 h
  Glucose (mean): 4.27 mmol/L
Glucose [3]; 2 mg, 1.50 h
  Glucose (mean): 2.65 mmol/L
Glucose [3]; 2 mg, 2.09 h (so in the source)
  Glucose (mean): 2.74 mmol/L
Glucose [3]; 2 mg, 3.00 h
  Glucose (mean): 3.07 mmol/L
Glucose [3]; 2 mg, 4.00 h
  Glucose (mean): 3.64 mmol/L
Glucose [3]; 2 mg, 5.00 h
  Glucose (mean): 3.88 mmol/L
Glucose [3]; 2 mg, 6.00 h
  Glucose (mean): 6.47 mmol/L
Glucose [3]; 2 mg, 8.00 h
  Glucose (mean): 4.61 mmol/L
Glucose [3]; 2 mg, 10.00 h (dinner)
  Glucose (mean): 4.45 mmol/L
Glucose [3]; 2 mg, 24.00 h
  Glucose (mean): 4.77 mmol/L

Reference: US6143769A, “Phenylacetic acid benzylamides” (Karl Thomae GmbH, priority 1983, dated 2000)
